According to patent US12421252B2, “Spiro (isobenzofuranazetidine) compounds for the treatment of autoimmune disease” (Hoffmann-La Roche Inc., priority 2020, dated 2025):
pIC50: −log10 of the molar value. Each block holds one compound with its values, some of them ahead of it.

How the values were obtained:
hTLR9 = biological target: T1, hTLR9 (Homo sapiens, UniProt Q9NR96); set-up: host or cells: HEK; settings: data disclosed in US20150105370; read-out: HEK/hTLR9 IC50; cited from earlier work
T1 sequence (Q9NR96 26-1032): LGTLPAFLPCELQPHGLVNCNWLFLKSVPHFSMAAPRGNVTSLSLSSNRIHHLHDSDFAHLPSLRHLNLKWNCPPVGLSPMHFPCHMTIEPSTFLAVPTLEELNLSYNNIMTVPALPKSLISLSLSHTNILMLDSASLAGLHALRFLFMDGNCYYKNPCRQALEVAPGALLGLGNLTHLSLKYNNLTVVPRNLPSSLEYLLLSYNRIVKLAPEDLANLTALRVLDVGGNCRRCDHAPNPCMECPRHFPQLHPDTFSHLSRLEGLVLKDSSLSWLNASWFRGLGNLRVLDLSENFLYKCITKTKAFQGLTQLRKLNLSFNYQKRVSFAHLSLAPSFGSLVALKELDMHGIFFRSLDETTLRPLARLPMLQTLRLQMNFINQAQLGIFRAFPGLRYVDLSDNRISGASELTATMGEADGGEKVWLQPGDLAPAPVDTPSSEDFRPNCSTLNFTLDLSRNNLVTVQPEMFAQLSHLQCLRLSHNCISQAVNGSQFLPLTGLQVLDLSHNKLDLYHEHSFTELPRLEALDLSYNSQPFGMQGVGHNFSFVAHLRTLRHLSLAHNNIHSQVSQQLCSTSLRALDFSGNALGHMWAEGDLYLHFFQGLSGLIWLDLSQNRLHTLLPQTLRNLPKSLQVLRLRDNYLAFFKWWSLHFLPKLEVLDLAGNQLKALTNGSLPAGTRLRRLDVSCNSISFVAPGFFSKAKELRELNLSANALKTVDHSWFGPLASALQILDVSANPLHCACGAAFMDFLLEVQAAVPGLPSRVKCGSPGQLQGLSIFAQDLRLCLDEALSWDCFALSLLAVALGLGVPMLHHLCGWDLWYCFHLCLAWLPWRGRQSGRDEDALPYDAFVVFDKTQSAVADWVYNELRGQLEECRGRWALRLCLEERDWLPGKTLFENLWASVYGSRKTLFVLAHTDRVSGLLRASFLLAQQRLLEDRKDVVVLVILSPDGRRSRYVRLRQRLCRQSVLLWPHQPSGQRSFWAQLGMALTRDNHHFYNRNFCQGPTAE

CYP2C9 = biological target: T2, CYP2C9 (Homo sapiens, UniProt P11712); experiment: CYP inhibition assay in human liver microsome, CYP2C9; type: in vitro ADME; settings: percentage inhibition, substrate Diclofenac 5 μM, <0: not or weak inhibitor
T2 construct: tissue BD-Gentest 452117; host or cells: human liver microsomes
T2 sequence (P11712 whole entry): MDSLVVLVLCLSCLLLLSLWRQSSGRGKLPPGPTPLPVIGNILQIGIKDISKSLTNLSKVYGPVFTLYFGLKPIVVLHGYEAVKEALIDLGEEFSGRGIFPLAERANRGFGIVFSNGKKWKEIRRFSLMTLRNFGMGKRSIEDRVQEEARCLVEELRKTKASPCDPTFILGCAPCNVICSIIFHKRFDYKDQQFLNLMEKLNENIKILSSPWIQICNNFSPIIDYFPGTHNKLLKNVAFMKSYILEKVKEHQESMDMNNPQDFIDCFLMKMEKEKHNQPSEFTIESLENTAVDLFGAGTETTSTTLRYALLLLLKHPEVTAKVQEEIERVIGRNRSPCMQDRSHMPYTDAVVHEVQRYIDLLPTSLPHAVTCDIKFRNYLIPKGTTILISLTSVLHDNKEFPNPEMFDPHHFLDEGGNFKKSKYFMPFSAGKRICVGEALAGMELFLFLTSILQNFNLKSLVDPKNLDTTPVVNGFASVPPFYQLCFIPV
Experimental: (§1) This is a high throughput screening assay used for assessment of reversible inhibition of CYP2C9, CYP2D6, and CYP3A4 activity of test compounds in human liver microsome (HLM) in early discovery stage.
(§2) Procedure 10 mM DMSO stock solutions of test compounds were diluted in DMSO to generate 2 mM intermediate stock solution. 250 nL of intermediate stock solution were transferred in duplicate into 3 separate 384 well microtitre plates (assay-ready plates). A mixture of HLM and each substrate was made up. 45 μL of HLM substrate mix was then transferred to each well of an assay ready plate and mixed. The negative (solvent) and positive controls (standard inhibitor for each CYP) were included in each assay ready plate. The assay ready plate was warmed to 37° C. in an incubator over 10 minutes. 5 μL pre-warmed NADPH regenerating system was added to each incubation well to start the reaction. Final incubation volume was 50 μL. The assay plate then was placed back in the 37° C. incubator. After incubation (10 minutes for CYP2D6) for 5 minutes, incubates were quenched by addition of 50 μL 100% acetonitrile containing internal standards (400 ng/mL 13C6-4′-OH-Diclofenac, 20 ng/mL D3-Dextrorphan and 20 ng/mL D4-1′OH-Midazolam). The supernatants were collected for RapidFire/MS/MS analysis.
(§3) RapidFire online solid phase extraction/sample injection system (Agilent) coupled with API4000 triple quadrupole mass spectrometer (AB Sciex) were used for sample analysis. The mobile phase composed of acetonitrile and water supplemented with 0.1% formic acid. A C4 solid phase extraction cartridge is used for sample separation. MS detection is achieved in positive ion MRM mode.
(§4) Data analysis Peak areas for substrate, metabolite and internal standard are determined using the RapidFire integrator software (version 3.6.12009.12296). Peak area ratios (PAR) of metabolite and internal standard (stable-labelled metabolite) are then calculated. The measurement window for each experiment is then defined: PAR (0% activity)=average PAR for all incubations containing concentrated inhibitor; Par (100% activity)=average PAR for all incubations containing no inhibitor (DMSO controls); % Activity (test inhibitor)=[PAR (test inhibitor)-PAR (0% activity)]/[PAR (100% activity)-PAR (0% activity)]; % Inhibition (test inhibitor)=100-% Activity (test inhibitor).

CYP3A4 = biological target: T3, CYP3A4 (Homo sapiens, UniProt P08684); experiment: CYP inhibition assay in human liver microsome, CYP3A4; type: in vitro ADME; settings: percentage inhibition, substrate Midazolam 5 μM, <0: not or weak inhibitor
T3 construct: tissue BD-Gentest 452117; host or cells: human liver microsomes
T3 sequence (P08684 whole entry): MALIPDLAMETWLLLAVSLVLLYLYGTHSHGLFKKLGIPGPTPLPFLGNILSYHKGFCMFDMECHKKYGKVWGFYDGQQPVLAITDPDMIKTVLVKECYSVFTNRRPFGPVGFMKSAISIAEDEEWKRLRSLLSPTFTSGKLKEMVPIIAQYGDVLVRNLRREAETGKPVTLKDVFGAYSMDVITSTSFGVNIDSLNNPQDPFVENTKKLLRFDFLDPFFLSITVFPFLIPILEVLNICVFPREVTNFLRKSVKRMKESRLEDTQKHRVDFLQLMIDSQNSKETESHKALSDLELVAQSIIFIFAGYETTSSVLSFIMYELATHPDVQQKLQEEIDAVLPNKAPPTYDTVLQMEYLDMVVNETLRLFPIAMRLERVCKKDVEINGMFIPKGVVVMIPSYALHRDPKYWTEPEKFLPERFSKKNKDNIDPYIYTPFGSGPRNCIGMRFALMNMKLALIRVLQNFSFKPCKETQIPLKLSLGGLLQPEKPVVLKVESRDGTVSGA
Experimental: as §1, §2, §3, §4

CYP2D6 = biological target: T4, CYP2D6 (Homo sapiens, UniProt P10635); experiment: CYP inhibition assay in human liver microsome, CYP2D6; type: in vitro ADME; settings: percentage inhibition, substrate Dextromethorphan 5 μM, <0: not or weak inhibitor
T4 construct: tissue BD-Gentest 452117; host or cells: human liver microsomes
T4 sequence (P10635 whole entry): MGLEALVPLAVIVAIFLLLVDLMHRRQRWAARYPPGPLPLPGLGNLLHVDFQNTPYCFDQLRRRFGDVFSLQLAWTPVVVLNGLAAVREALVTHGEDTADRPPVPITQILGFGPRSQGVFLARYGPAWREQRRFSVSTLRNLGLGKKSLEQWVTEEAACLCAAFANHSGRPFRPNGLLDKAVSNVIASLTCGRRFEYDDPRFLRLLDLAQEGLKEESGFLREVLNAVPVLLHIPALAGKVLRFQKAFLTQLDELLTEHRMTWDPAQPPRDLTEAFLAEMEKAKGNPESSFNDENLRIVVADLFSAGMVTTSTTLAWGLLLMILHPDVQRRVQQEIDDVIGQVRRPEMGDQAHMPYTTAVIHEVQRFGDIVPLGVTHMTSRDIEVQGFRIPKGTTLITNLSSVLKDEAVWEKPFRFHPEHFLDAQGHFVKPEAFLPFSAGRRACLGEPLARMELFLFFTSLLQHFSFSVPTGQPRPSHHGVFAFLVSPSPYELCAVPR
Experimental: as §1, §2, §3, §4

hERG channel = biological target: T5, hERG channel (Homo sapiens, UniProt Q12809); experiment: hERG channel inhibition assay (patch-clamp, CHO hERG cells); type: cell-based; settings: CHO hERG cells, whole-cell patch-clamp; for IC20: human, CHO cells stably expressing hERG
T5 construct: expressed in transfected cells
T5 sequence (Q12809 whole entry): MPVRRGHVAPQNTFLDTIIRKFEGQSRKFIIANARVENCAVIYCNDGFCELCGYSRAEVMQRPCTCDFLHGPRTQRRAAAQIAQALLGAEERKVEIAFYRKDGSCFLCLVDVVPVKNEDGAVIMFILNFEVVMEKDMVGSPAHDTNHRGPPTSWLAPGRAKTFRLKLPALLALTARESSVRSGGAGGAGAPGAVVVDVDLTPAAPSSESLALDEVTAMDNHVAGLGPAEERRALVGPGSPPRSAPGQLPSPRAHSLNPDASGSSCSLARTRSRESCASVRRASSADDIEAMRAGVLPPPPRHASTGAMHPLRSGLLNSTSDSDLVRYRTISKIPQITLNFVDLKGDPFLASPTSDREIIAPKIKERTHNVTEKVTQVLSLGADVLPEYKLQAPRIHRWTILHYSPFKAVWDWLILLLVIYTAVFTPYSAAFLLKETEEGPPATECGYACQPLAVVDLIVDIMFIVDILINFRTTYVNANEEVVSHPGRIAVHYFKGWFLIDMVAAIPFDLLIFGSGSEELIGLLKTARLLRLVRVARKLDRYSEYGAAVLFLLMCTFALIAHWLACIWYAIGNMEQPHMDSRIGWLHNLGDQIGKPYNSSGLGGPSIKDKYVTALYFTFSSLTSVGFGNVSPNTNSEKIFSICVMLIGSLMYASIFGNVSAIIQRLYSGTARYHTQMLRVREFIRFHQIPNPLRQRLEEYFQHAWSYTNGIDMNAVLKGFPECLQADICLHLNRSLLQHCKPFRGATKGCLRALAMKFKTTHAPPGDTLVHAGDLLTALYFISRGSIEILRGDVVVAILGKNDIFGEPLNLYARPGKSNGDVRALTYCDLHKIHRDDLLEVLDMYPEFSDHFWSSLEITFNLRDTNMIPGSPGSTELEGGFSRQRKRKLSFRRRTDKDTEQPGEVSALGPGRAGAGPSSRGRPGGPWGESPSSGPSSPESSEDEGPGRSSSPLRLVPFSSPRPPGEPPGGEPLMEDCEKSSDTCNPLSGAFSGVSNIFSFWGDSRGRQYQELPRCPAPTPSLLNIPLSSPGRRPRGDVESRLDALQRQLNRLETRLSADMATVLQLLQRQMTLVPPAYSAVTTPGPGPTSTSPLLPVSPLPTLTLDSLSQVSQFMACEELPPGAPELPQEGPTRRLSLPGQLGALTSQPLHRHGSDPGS
Experimental: hERG Channel Inhibition Assay:
The hERG K+ channels were cloned in humans and stably expressed in a CHO (Chinese hamster ovary) cell line. CHOhERG cells were used for patch-clamp (voltage-clamp, whole-cell) experiments. Cells were stimulated by a voltage pattern to activate hERG channels and conduct IKhERG Currents (rapid delayed outward rectifier potassium current of the hERG channel). After the cells were stabilized for a few minutes, the amplitude and kinetics of IKhERG were recorded at a stimulation frequency of 0.1 Hz, (6 bpm). Thereafter, the test compound was added to the preparation at increasing concentrations. For each concentration, an attempt was made to reach a steady-state effect, usually, this was achieved within 3-10 min at which time the next highest concentration was applied. The amplitude and kinetics of IKhERG are recorded in each concentration of the drug which were compared to the control values (taken as 100%). (references: Redfern W S, Carlsson L, Davis A S, Lynch W G, MacKenzie I, Palethorpe S, Siegl P K, Strang I, Sullivan A T, Wallis R, Camm A J, Hammond T G. 2003; Relationships between preclinical cardiac electrophysiology, clinical QT interval prolongation and torsade de pointes for a broad range of drugs: evidence for a provisional safety margin in drug development. Cardiovasc. Res. 58:32-45, Sanguinetti M C, Tristani-Firouzi M. 2006; hERG potassium channels and cardiac arrhythmia. Nature 440:463-469, Webster R, Leishman D, Walker D. 2002; Towards a drug concentration effect relationship for QT prolongation and torsades de pointes. Curr. Opin. Drug Discov. Devel. 5:116-26).

human TLR8 = biological target: T6, human TLR8 (Homo sapiens, UniProt Q9NR97); experiment: HEK293-Blue-hTLR-8 cells assay; type: cell-based; settings: HEK293-Blue-hTLR8 cells, R848 stimulation, 20 hrs, SEAP reporter; read-out: HEK/hTLR8 IC50
T6 sequence (Q9NR97 27-1041): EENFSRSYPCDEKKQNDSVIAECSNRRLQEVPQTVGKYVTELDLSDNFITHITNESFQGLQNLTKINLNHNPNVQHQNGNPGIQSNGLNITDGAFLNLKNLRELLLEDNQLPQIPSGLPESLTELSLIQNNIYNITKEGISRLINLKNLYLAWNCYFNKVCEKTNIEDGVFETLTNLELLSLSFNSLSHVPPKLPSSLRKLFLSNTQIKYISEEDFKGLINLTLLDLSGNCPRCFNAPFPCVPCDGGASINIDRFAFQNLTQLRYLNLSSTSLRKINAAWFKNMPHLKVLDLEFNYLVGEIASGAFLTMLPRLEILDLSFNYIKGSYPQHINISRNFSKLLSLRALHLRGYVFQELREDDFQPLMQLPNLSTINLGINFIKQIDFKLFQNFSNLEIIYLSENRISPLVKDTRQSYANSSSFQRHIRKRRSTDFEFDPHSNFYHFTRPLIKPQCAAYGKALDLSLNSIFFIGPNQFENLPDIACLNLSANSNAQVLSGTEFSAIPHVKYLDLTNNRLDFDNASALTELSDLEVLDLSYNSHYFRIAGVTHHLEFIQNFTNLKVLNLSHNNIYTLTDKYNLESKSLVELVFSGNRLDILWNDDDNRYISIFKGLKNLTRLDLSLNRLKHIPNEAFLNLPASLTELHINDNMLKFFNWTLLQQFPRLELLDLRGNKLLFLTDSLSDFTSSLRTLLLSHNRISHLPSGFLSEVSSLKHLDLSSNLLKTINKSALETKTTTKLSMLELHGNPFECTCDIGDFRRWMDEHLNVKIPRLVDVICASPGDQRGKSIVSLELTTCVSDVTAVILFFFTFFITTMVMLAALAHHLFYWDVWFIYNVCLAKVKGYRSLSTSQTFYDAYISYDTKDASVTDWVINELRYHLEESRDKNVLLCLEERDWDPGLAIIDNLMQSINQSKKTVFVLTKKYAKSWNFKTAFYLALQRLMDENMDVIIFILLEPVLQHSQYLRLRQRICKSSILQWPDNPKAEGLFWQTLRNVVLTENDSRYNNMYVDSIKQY
Text: HEK293-Blue-hTLR-8 cells assay:
A stable HEK293-Blue-hTLR-8 cell line was purchased from InvivoGen (Cat. #: hkb-htlr8, San Diego, California, USA). These cells were originally designed for studying the stimulation of human TLR8 by monitoring the activation of NF-κB. A SEAP (secreted embryonic alkaline phosphatase) reporter gene was placed under the control of the IFN-β minimal promoter fused to five NF-κB and AP-1-binding sites. The SEAP was induced by activating NF-κB and AP-1 via stimulating HEK-Blue hTLR8 cells with TLR8 ligands. Therefore the reporter expression was declined by TLR8 antagonist under the stimulation of a ligand, such as R848, for incubation of 20 hrs. The cell culture supernatant SEAP reporter activity was determined using QUANTI-Blue™kit (Cat. #: rep-qb1, Invivogen, San Diego, Ca, USA) at a wavelength of 640 nm, a detection medium that turns purple or blue in the presence of alkaline phosphatase.
HEK293-Blue-hTLR8 cells were incubated at a density of 250,000˜450,000 cells/mL in a volume of 170 μL in a 96-well plate in Dulbecco's Modified Eagle's medium (DMEM) containing 4.5 g/L glucose, 50 U/mL penicillin, […], […], 2 mM L-glutamine, 10% (v/v) heat-inactivated fetal bovine serum with addition of 20 μL test compound in a serial dilution in the presence of final DMSO at 1% and 10 μL of 60 uM R848 in above DMEM, perform incubation under 37° C. in a CO2 incubator for 20 hrs. Then 20 μL of the supernatant from each well was incubated with 180 μL Quanti-blue substrate solution at 37° C. for 2 hrs and the absorbance was read at 620-655 nm using a spectrophotometer. The signaling pathway that TLR8 activation leads to downstream NF-κB activation has been widely accepted, and therefore similar reporter assay was modified for evaluating TLR8 antagonist.

SMILES: C[C@@H]1CN(c2ccc(C#N)c3ncccc23)C[C@H](CN2CC(NS(=O)(=O)c3ccc(F)cc3)C2)O1 [ER-894155]
pIC50 (hTLR9): < 5.00

SMILES: Cc1nn(C)cc1S(=O)(=O)NC1CCN(C[C@H]2CN(c3ccc(C#N)c4ncccc34)C[C@@H](C)O2)CC1 [ER-894160]
pIC50 (hTLR9): < 5.00

SMILES: C[C@@H]1CN(c2ccc(C#N)c3ncccc23)C[C@H](CN2CC[C@@H](NC(=O)c3ccccc3)C2)O1 [ER-894544]
pIC50 (hTLR9): < 5.21

CYP (%) 2C9 (CYP2C9): −8.5%
CYP (%) 3A4 (CYP3A4): −8.5%
CYP (%) 2D6 (CYP2D6): 5%
SMILES: C[C@@H]1CN(c2ccc(C#N)n3nccc23)C[C@H](CN2CC3(C2)OCc2cc(N4CC5(CN(C)C5)C4)ccc23)O1 [Example 8, 4-[(2R,6S)-2-methyl-6-[[6-(6-methyl-2,6-diazaspiro[3.3]heptan-2-yl)spiro[1H-isobenzofuran-3,3′-azetidine]-1′-yl]methyl]morpholin-4-yl]pyrazolo[1,5-a]pyridine-7-carbonitrile]

CYP (%) 2C9 (CYP2C9): 4%
CYP (%) 3A4 (CYP3A4): 12%
CYP (%) 2D6 (CYP2D6): 5.5%
SMILES: [2H]c1ccc2c(N3C[C@H](CN4CC5(C4)OCc4cc(N6CC(C)(N)C6)ccc45)O[C@H](C)C3)ccc(C#N)c2n1 [Example 11, 5-[(2S,6R)-2-[[6-(3-amino-3-methyl-azetidin-1-yl)spiro[1H-isobenzofuran-3,3′-azetidine]-1′-yl]methyl]-6-methyl-morpholin-4-yl]-2-deuterio-quinoline-8-carbonitrile]
pIC50 (hERG channel): < 4.70
IC20 (hERG channel): 6.2 µM

SMILES: [2H]c1ccc2c(N3C[C@H](CN4CC5(C4)OCc4cc(N6CC(N)C6)ccc45)O[C@H](C)C3)ccc(C#N)c2n1 [Example 14, 5-[(2S,6R)-2-[[6-(3-aminoazetidin-1-yl)spiro[1H-isobenzofuran-3,3′-azetidine]-1′-yl]methyl]-6-methyl-morpholin-4-yl]-2-deuterio-quinoline-8-carbonitrile]
pIC50 (hERG channel): < 4.70
IC20 (hERG channel): > 10 µM

pIC50 (human TLR8): 8.05
SMILES: [2H]c1ccc2c(N3C[C@H](CN4CC5(C4)OCc4cc(N6CC7(CNCCO7)C6)ccc45)O[C@H](C)C3)ccc(C#N)c2n1 [Example 15, 2-deuterio-5-[(2R,6S)-2-methyl-6-[[6-(5-oxa-2,8-diazaspiro[3.5]nonan-2-yl)spiro[1H-isobenzofuran-3,3′-azetidine]-1′-yl]methyl]morpholin-4-yl]quinoline-8-carbonitrile]
